Experimental data as given in PubChem BioAssay (NCI).
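In this assay, cells in 96-well plates receive the compound at five concentrations for 48 hours. Endpoints are linearly interpolated between the surrounding concentrations. The concentration for 50% growth inhibition is given as GI50. TGI is the concentration that stops growth completely.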

Columns and labels:
Experiment in all cases: inhibition of tumour cell growth, NCI panel, 48 h
[1] = system: A498 renal
[2] = system: A549 NSCLC
[3] = system: ACHN renal
[4] = system: BT-549 breast
[5] = system: COLO 205 colon
[6] = system: DU-145 prostate
[7] = system: EKVX NSCLC
[8] = system: HCC-2998 colon
[9] = system: HCT-116 colon
[10] = system: HCT-15 colon
[11] = system: HL-60(TB) leukemia
[12] = system: HS 578T breast
[13] = system: IGROV1 ovarian
[14] = system: K-562 leukemia
[15] = system: KM12 colon
[16] = system: LOX IMVI melanoma
[17] = system: M14 melanoma
[18] = system: MALME-3M melanoma
[19] = system: MCF7 breast
[20] = system: MDA-MB-231 breast
[21] = system: MDA-MB-435
[22] = system: MDA-MB-468 breast
[23] = system: MOLT-4 leukemia
[24] = system: NCI-H460 lung
[25] = system: NCI-H522 lung
[26] = system: OVCAR-3 ovarian
[27] = system: OVCAR-4 ovarian
[28] = system: OVCAR-5 ovarian
[29] = system: OVCAR-8 ovarian
[30] = system: PC-3 prostate
[31] = system: RPMI-8226 leukemia
[32] = system: RXF 393 renal
[33] = system: SF-268 CNS
[34] = system: SF-295 CNS
[35] = system: SF-539 CNS
[36] = system: SK-MEL-2 melanoma
[37] = system: SK-MEL-28 melanoma
[38] = system: SK-MEL-5 melanoma
[39] = system: SN12C renal
[40] = system: SNB-19 CNS
[41] = system: SNB-75 CNS
[42] = system: SW-620 colon
[43] = system: T-47D breast
[44] = system: TK-10 renal
[45] = system: U251 CNS
[46] = system: UACC-62 melanoma
[47] = system: UO-31 renal
[48] = system: 786-0 renal
[49] = system: CAKI-1 renal
[50] = system: CCRF-CEM leukemia
[51] = system: HOP-62 NSCLC
[52] = system: HOP-92 NSCLC
[53] = system: HT29 colon
[54] = system: NCI-H226 lung
[55] = system: NCI-H23 lung
[56] = system: SK-OV-3 ovarian
[57] = system: SR leukemia
[58] = system: UACC-257 melanoma

COC[C@@H](CC(C)C)N=C1NC(=O)/C(=C/c2ccc3ncsc3c2)N1
GI50 [1]: 1.93 µM
TGI [1]: 7.93 µM
GI50 [2]: 2.03 µM
TGI [2]: > 100 µM
GI50 [3]: 2.46 µM
TGI [3]: 11.4 µM
GI50 [4]: 1.56 µM
TGI [4]: 7.59 µM
GI50 [5]: 1.94 µM
TGI [5]: 6.28 µM
GI50 [6]: 3.06 µM
TGI [6]: > 100 µM
GI50 [7]: 3.27 µM
TGI [7]: 75.8 µM
GI50 [8]: 4.03 µM
TGI [8]: 56.4 µM
GI50 [9]: 1.45 µM
TGI [9]: 66.4 µM
GI50 [10]: 2.66 µM
TGI [10]: > 100 µM
GI50 [11]: 3.11 µM
TGI [11]: 8.36 µM
GI50 [12]: 2.26 µM
TGI [12]: 8.33 µM
GI50 [13]: 2.42 µM
TGI [13]: 22 µM
GI50 [14]: 2.8 µM
TGI [14]: > 100 µM
GI50 [15]: 3.19 µM
TGI [15]: 34.5 µM
GI50 [16]: 2.57 µM
TGI [16]: > 100 µM
GI50 [17]: 3.88 µM
TGI [17]: 22 µM
GI50 [18]: 2.53 µM
TGI [18]: 7.29 µM
GI50 [19]: 2.64 µM
TGI [19]: > 100 µM
GI50 [20]: 3.65 µM
TGI [20]: > 100 µM
GI50 [21]: 3.56 µM
TGI [21]: 18.7 µM
GI50 [22]: 1.98 µM
TGI [22]: 10.8 µM
GI50 [23]: 2.68 µM
TGI [23]: 15.4 µM
GI50 [24]: 3.08 µM
TGI [24]: > 100 µM
GI50 [25]: 1.16 µM
TGI [25]: 4.89 µM
GI50 [26]: 1.22 µM
TGI [26]: 4.32 µM
GI50 [27]: 6.14 µM
TGI [27]: 79.3 µM
GI50 [28]: 3.04 µM
TGI [28]: > 100 µM
GI50 [29]: 2.88 µM
TGI [29]: > 100 µM
GI50 [30]: 3.9 µM
TGI [30]: 52.7 µM
GI50 [31]: 2.8 µM
TGI [31]: 9.52 µM
GI50 [32]: 1.91 µM
TGI [32]: 4.96 µM
GI50 [33]: 3.41 µM
TGI [33]: 19 µM
GI50 [34]: 3.46 µM
TGI [34]: > 100 µM
GI50 [35]: 1.04 µM
TGI [35]: 4.54 µM
GI50 [36]: 1.88 µM
TGI [36]: 4.32 µM
GI50 [37]: 2.69 µM
TGI [37]: 8.69 µM
GI50 [38]: 2.8 µM
TGI [38]: 8.85 µM
GI50 [39]: 2.71 µM
TGI [39]: 30 µM
GI50 [40]: 1.76 µM
TGI [40]: 48.3 µM
GI50 [41]: 1.04 µM
TGI [41]: 6.75 µM
GI50 [42]: 2.14 µM
TGI [42]: 20 µM
GI50 [43]: 1.96 µM
TGI [43]: 9.01 µM
GI50 [44]: 2.95 µM
TGI [44]: > 100 µM
GI50 [45]: 2.58 µM
TGI [45]: > 100 µM
GI50 [46]: 2.19 µM
TGI [46]: 8.63 µM
GI50 [47]: 2.36 µM
TGI [47]: 6.7 µM

Cc1ccc(C(SCCNCc2cc(N(C)C)ccn2)(c2ccccc2)c2ccccc2)cc1
GI50 [48]: 1.88 µM
TGI [48]: 3.83 µM
GI50 [1]: 13.4 µM
TGI [1]: 27 µM
GI50 [2]: 4.13 µM
TGI [2]: 18 µM
GI50 [3]: 4.72 µM
TGI [3]: 17.3 µM
GI50 [4]: 2.94 µM
TGI [4]: 7.87 µM
GI50 [49]: 3.28 µM
TGI [49]: 15.5 µM
GI50 [50]: 2.03 µM
TGI [50]: 8.53 µM
GI50 [5]: 1.7 µM
TGI [5]: 3.17 µM
GI50 [6]: 3.54 µM
TGI [6]: 12.5 µM
GI50 [7]: 1.49 µM
TGI [7]: 3.9 µM
GI50 [8]: 1.42 µM
TGI [8]: 2.75 µM
GI50 [9]: 1.23 µM
TGI [9]: 5.22 µM
GI50 [10]: 0.496 µM
TGI [10]: 1.76 µM
GI50 [11]: 1.73 µM
TGI [11]: 4.19 µM
GI50 [51]: 3.26 µM
TGI [51]: 14.3 µM
GI50 [52]: 1.85 µM
TGI [52]: 8.82 µM
GI50 [12]: 2.58 µM
TGI [12]: 10.5 µM
GI50 [53]: 1.98 µM
TGI [53]: 4.17 µM
GI50 [13]: 3.81 µM
TGI [13]: 16.1 µM
GI50 [14]: 2.22 µM
TGI [14]: 7.73 µM
GI50 [15]: 3.34 µM
TGI [15]: 12 µM
GI50 [16]: 1.42 µM
TGI [16]: 2.77 µM
GI50 [17]: 1.55 µM
TGI [17]: 3.5 µM
GI50 [18]: 1.75 µM
TGI [18]: 3.29 µM
GI50 [19]: 0.373 µM
TGI [19]: 1.57 µM
GI50 [20]: 2.35 µM
TGI [20]: 6.33 µM
GI50 [21]: 1.55 µM
TGI [21]: 4.67 µM
GI50 [22]: 2.35 µM
TGI [22]: 6.87 µM
GI50 [23]: 2.38 µM
TGI [23]: 6.9 µM
GI50 [54]: 14 µM
TGI [54]: 28.1 µM
GI50 [55]: 1.72 µM
TGI [55]: 3.32 µM
GI50 [24]: 3.02 µM
TGI [24]: 9.9 µM
GI50 [25]: 2.34 µM
TGI [25]: 6.63 µM
GI50 [26]: 2.65 µM
TGI [26]: 10.3 µM
GI50 [27]: 4.4 µM
TGI [27]: 20.3 µM
GI50 [28]: 5.19 µM
TGI [28]: 17.9 µM
GI50 [29]: 3.3 µM
TGI [29]: 20 µM
GI50 [30]: 2.63 µM
TGI [30]: 11.9 µM
GI50 [31]: 2.08 µM
TGI [31]: 5.48 µM
GI50 [32]: 3.03 µM
TGI [32]: 12.5 µM
GI50 [33]: 4.46 µM
TGI [33]: 18.7 µM
GI50 [34]: 1.46 µM
TGI [34]: 2.86 µM
GI50 [35]: 2.2 µM
TGI [35]: 4.89 µM
GI50 [37]: 5.56 µM
TGI [37]: 17.8 µM
GI50 [38]: 3.59 µM
TGI [38]: 12.8 µM
GI50 [56]: 3.84 µM
TGI [56]: 14.4 µM
GI50 [39]: 3.94 µM
TGI [39]: 14.6 µM
GI50 [40]: 4.42 µM
TGI [40]: 16.3 µM
GI50 [41]: 1.96 µM
TGI [41]: 12.4 µM
GI50 [57]: 1.34 µM
TGI [57]: 9.42 µM
GI50 [42]: 2.52 µM
TGI [42]: 11.4 µM
GI50 [43]: 2.81 µM
TGI [43]: 11 µM
GI50 [44]: 4.68 µM
TGI [44]: 17.3 µM
GI50 [45]: 2.69 µM
TGI [45]: 10.4 µM
GI50 [58]: 4.27 µM
TGI [58]: 15.4 µM
GI50 [46]: 9.9 µM
TGI [46]: 21.8 µM
GI50 [47]: 2.96 µM
TGI [47]: 16.2 µM
